Non-standard residues stand in square brackets, D forms with d. Residues, ends and D or L forms follow the SMILES beside them.
How the values were obtained:
[1] = Animal fluorescence imaging, tissue distribution and urine; format: in vivo, rat
Description: To assess the fate of DPMD in vivo, rats were administered DPMD intraperitoneally and monitored using in vivo fluorescence imaging.
Figure S14. (A) The cell viability test of NIH-3T3 or HUVEC cells co-cultured with different concentrations DPMD.
(B) The apoptosis evaluation of NIH-3T3 or HUVEC co-cultured with DPMD, DPMD & Trypsin, DPMD & Chymotrypsin by flow cytometry. (C) Tissue distribution and quantification of DPMD in […] organs measured by IVIS (n=3/point). The fluorescence signal from the organs after DPMD intraperitoneal injection (1 ml, 0.5%) at 1h, 2-day, 3-day, 4-day, 5-day, 6-day, 7-day. (D) The evaluation of distribution DMPD in urine.
(1 picture or pasted object on this page, not shown here) […]
was performed using an Annexin V-Alexa Fluor 647/PI kit (Solarbio) according to the manufacturer’ s protocol. Briefly, adherent cells were detached with 0.25% EDTA-free trypsin, combined with floating cells from the supernatant. The pellet was washed twice with cold PBS and resuspended in 100 μL of 1× binding buffer. […] Samples were analyzed within 1h on a Sony MA900 flow cytometer.
(§1) 3.12 Animal fluorescence imaging
(§2) Rats were intraperitoneally injected with 1 mL of rhodamine-labeled 0.5% (w/v) DPMD. […] The fluorescence emission intensity of the organs was measured using IVIS Spectrum system (PerkinElmer). […]

Proteinase K = target: T1, Proteinase K (Parengyodontium album, UniProt P06873); assay: Fluorescence anisotropy binding, non-target protease; conditions: Figure S3A
T1 construct: purchased Sigma-Aldrich
T1 sequence (P06873 106-384): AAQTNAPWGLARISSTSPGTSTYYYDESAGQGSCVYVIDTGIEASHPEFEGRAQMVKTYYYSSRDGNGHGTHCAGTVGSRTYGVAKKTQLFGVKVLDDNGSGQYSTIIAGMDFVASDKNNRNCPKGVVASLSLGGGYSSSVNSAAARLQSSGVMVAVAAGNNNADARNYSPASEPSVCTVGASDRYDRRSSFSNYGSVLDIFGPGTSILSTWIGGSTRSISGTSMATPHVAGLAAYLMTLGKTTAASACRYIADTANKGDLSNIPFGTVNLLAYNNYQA
Excerpt: Figure S3. The fluorescent anisotropy evaluation of binding affinity between DPMD peptide with Proteinase K (A), and inhibitor-saturated and blocked trypsin (B) and chymotrypsin (C). Trypsin/Chymotrypsin was saturated and blocked by aprotinin (Yeasen Biotechnology, trypsin/chymotrypsin inhibitor). (D-H) The fluorescent anisotropy evaluation of binding affinity between DPMD peptide with elastase (D), lipase (E), amylase(F), carboxypeptidase (G), albumin (H) and immunoglobulins (I).
Figure S4. The DLS analysis of trypsin, chymotrypsin and DPMD with/without trypsin or chymotrypsin. […]
data acquisition. A series of enzyme solutions with varying concentrations (maximum concentrations of trypsin and chymotrypsin were 20 μM each) were prepared in Tris-HCl buffer (10 mM Tris, 150 mM NaCl, 1 mM EDTA, pH 7.0). These enzyme solutions were added to the 96-well plate and incubated with 100 nM DPMD at room temperature for 30 minutes, with triplicates.
Fluorescence polarization was measured with an excitation wavelength of 470 nm and an emission […]
Plot the fluorescence intensity versus concentration data as scatter plots using Origin software.
For data analysis, fit the concentration-fluorescence polarization data with the logistic function in Origin 2021 software to obtain the fitting curve and determine the half-maximal effective concentration (EC50). […]

[2] = tested on: postoperative pancreatic fistula (POPF); assay: Rat pancreatic splenic duct transection (non-lethal) POPF model; format: in vivo
Description: To investigate the biofunction of DPMD in preventing POPF, a slowly occurring POPF model was established in rats by transecting the peripancreatic splenic duct to induce a continuous but low leakage of pancreatic juice (Figure 3A). Following surgical modeling, DPMD, its L‐enantiomer LPMD, or normal saline (Ctrl) were topically applied on the incision site. After post operation, chymotrypsin leakage was assessed using a specific fluorescent dye. […] By monitoring ascitic and serum amylase and lipase levels over a span of 7 days following surgical modeling (Figure 3C), we were able to make inferences about the pathological score (Figure 3D) and the occurrence of POPF (Figure 3E). The noteworthy observation is that all the mock‐treated rats experienced POPF on day 3 following surgical modeling, and this phenomenon persisted until day 5 (Figure 3E). In contrast, LPMD reduced both the occurrence and severity of POPF, resulting in 33% of rats being healthy and only 67% experiencing minor POPF on day 3; furthermore, all rats fully recovered by day 5 (Figure 3E). […] Furthermore, both DPMD and LPMD treatments decreased inflammation markers including TNF‐α, IL‐6, IL‐8, IL‐33, sST2, CRP, HMGB1, MPO, PAF, PCT, PGE2, and SAA in rats’ serum (Figure 3G). […]
was performed using an Annexin V-Alexa Fluor 647/PI kit (Solarbio) according to the manufacturer’ s protocol. Briefly, adherent cells were detached with 0.25% EDTA-free trypsin, combined with floating cells from the supernatant. The pellet was washed twice with cold PBS and resuspended in 100 μL of 1× binding buffer. After adding Annexin V-647 and PI, cells were incubated for 15 min in the dark at room temperature. Samples were analyzed within 1h on a Sony MA900 flow cytometer.
as §1, §2

CC[C@@H](C)[C@@H](NC(=O)[C@@H](CCC(N)=O)NC(=O)[C@H](NC(=O)[C@@H](Cc1ccc(O)cc1)NC(=O)CNC(=O)[C@@H](CC(C)C)NC(=O)[C@H](NC(=O)[C@@H](CO)NC(=O)CNC(=O)[C@@H](C)NC(=O)[C@@H](CC(=O)O)NC(=O)[C@@H](C)NC(=O)[C@@H](CCCNC(=N)N)NC(=O)[C@@H](C)NC(=O)[C@@H](CC(=O)O)NC(=O)[C@@H](C)NC(=O)[C@@H](CCCNC(=N)N)NC(=O)[C@@H](C)NC(=O)[C@@H](CC(=O)O)NC(=O)[C@@H](C)NC(=O)[C@@H](CCCNC(=N)N)NC(=O)[C@@H](C)NC(=O)[C@@H](CC(=O)O)NC(=O)[C@@H](C)NC(=O)[C@H](N)CCCNC(=N)N)C(C)C)[C@H](C)CC)C(=O)N[C@H](CCCNC(=N)N)C(=O)O [DPMD, Ac‐(D‐RADA)4‐CONH2] (H-[dR][dA][dD][dA][dR][dA][dD][dA][dR][dA][dD][dA][dR][dA][dD][dA]G[dS][dV][dL]G[dY][dI][dQ][dI][dR]-OH; N-terminus and C-terminus assumed)
fluorescence intensity in organs (liver, kidneys, spleen) ([1]; 1 mL rhodamine-labeled 0.5% (w/v) DPMD intraperitoneally, IVIS, day 6 post-injection, n=3/point): barely detectable | fluorescence in urine samples ([1]; labeled DPMD intraperitoneally, Figure S14D): fluorescence appeared in urine samples | binding to Proteinase K (fluorescence anisotropy) (Proteinase K): no appreciable binding | H&E staining of pancreatic tissue ([2]; Figure S10): reduced edema and inflammatory cell infiltration | chymotrypsin leakage by fluorescent dye imaging ([2]; topical application at incision site, Figure 3B): nearly complete suppression of leakage | serum inflammation markers (TNF-α, IL-6, IL-8, IL-33, sST2, CRP, HMGB1, MPO, PAF, PCT, PGE2, SAA) ([2]; within 7 days after surgery, Figure 3G): decreased
